# Source: patent US20050197350A1, “Novel quinoline, tetrahydroquinazoline, and pyrimidine derivatives and methods of treatment related to the use thereof” (TAISHO PHARMACEUTICAL CO., LTD., priority 2003, published 2005)
# Test system: MCH receptors
# Test: MCH receptor activity class (method not given)
# Conditions: class by percent of control at 10^-7 M or IC50
row,SMILES,class
1,Cc1cc(CN[C@H]2CC[C@@H](Nc3nccc(N(C)C)n3)CC2)cc(C)c1O [compound 1223],3 (Class 3 The value of percent of control at 10^−7 M was more than 60% or the value of IC50 was more than 200 nM.)
2,COc1cccc(CN[C@H]2CC[C@@H](Nc3nccc(N(C)C)n3)CC2)c1 [compound 1224],3 (Class 3 The value of percent of control at 10^−7 M was more than 60% or the value of IC50 was more than 200 nM.)
3,CN(C)c1ccnc(N[C@H]2CC[C@@H](NCc3ccc(F)c(Br)c3)CC2)n1 [compound 1225],3 (Class 3 The value of percent of control at 10^−7 M was more than 60% or the value of IC50 was more than 200 nM.)
4,"Cc1ccc2occ(CN[C@H]3CC[C@@H](Nc4nccc(N(C)C)n4)CC3)c(=O)c2c1 [compound 1227, 3-{[(cis-4-{[4-(dimethylamino)pyrimidin-2-yl]amino}-cylohexyl}-amino]methyl}-6-methyl-4H-chromen-4-one]",3 (Class 3 The value of percent of control at 10^−7 M was more than 60% or the value of IC50 was more than 200 nM.)
5,Cc1cc2occ(CN[C@H]3CC[C@@H](Nc4nccc(N(C)C)n4)CC3)c(=O)c2cc1Cl [compound 1228],3 (Class 3 The value of percent of control at 10^−7 M was more than 60% or the value of IC50 was more than 200 nM.)
6,Cc1cc(C)c2occ(CN[C@H]3CC[C@@H](Nc4nccc(N(C)C)n4)CC3)c(=O)c2c1 [compound 1229],3 (Class 3 The value of percent of control at 10^−7 M was more than 60% or the value of IC50 was more than 200 nM.)
7,Cc1cc(CN[C@H]2CC[C@@H](Nc3nccc(N(C)C)n3)CC2)c(C)n1-c1ccccc1 [compound 1230],3 (Class 3 The value of percent of control at 10^−7 M was more than 60% or the value of IC50 was more than 200 nM.)
8,CCCCC/C(=C\c1ccccc1)CN[C@H]1CC[C@@H](Nc2nccc(N(C)C)n2)CC1 [compound 1232],3 (Class 3 The value of percent of control at 10^−7 M was more than 60% or the value of IC50 was more than 200 nM.)
9,COc1ccccc1/C=C/CN[C@H]1CC[C@@H](Nc2nccc(N(C)C)n2)CC1 [compound 1233],3 (Class 3 The value of percent of control at 10^−7 M was more than 60% or the value of IC50 was more than 200 nM.)
10,CN(C)c1ccnc(N[C@H]2CC[C@@H](NCc3coc4ccc(Cl)cc4c3=O)CC2)n1 [compound 1234],3 (Class 3 The value of percent of control at 10^−7 M was more than 60% or the value of IC50 was more than 200 nM.)
11,CN(C)c1ccnc(N[C@H]2CC[C@@H](NCc3cncc(-c4ccc(F)cc4)c3)CC2)n1 [compound 1235],2 (Class 2: The value of percent of control at 10^−7 M was from 40% to 60% or the value of IC′50 was from 50 nM to 200 nM.)
12,CCOC(=O)c1[nH]c2cc(Cl)cc(Cl)c2c1CN[C@H]1CC[C@@H](Nc2nccc(N(C)C)n2)CC1 [compound 1236],1 (Class 1: The value of percent of control at 10^−7 M was less than 40% or the value of IC50 was less than 50 nM.)
13,COC(=O)c1ccccc1Sc1nc2sccn2c1CN[C@H]1CC[C@@H](Nc2nccc(N(C)C)n2)CC1 [compound 1237],3 (Class 3 The value of percent of control at 10^−7 M was more than 60% or the value of IC50 was more than 200 nM.)
14,CN(C)c1ccnc(N[C@H]2CC[C@@H](NCc3c[nH]nc3-c3ccc(F)cc3)CC2)n1 [compound 1238],3 (Class 3 The value of percent of control at 10^−7 M was more than 60% or the value of IC50 was more than 200 nM.)
15,CSc1ccc(CN[C@H]2CC[C@@H](Nc3nccc(N(C)C)n3)CC2)cc1 [compound 1239],3 (Class 3 The value of percent of control at 10^−7 M was more than 60% or the value of IC50 was more than 200 nM.)
16,CN(C)c1ccnc(N[C@H]2CC[C@@H](NCc3cccc4ccccc34)CC2)n1 [compound 1240],3 (Class 3 The value of percent of control at 10^−7 M was more than 60% or the value of IC50 was more than 200 nM.)
17,COc1cc(CN[C@H]2CC[C@@H](Nc3nccc(N(C)C)n3)CC2)ccc1O [compound 1241],3 (Class 3 The value of percent of control at 10^−7 M was more than 60% or the value of IC50 was more than 200 nM.)
18,CN(C)c1ccnc(N[C@H]2CC[C@@H](NCc3ccc(F)c(Cl)c3)CC2)n1 [compound 1242],3 (Class 3 The value of percent of control at 10^−7 M was more than 60% or the value of IC50 was more than 200 nM.)
19,COc1cccc(OC)c1CNC[C@H]1CC[C@@H](Nc2nccc(N(C)C)n2)CC1 [compound 1243],2 (Class 2: The value of percent of control at 10^−7 M was from 40% to 60% or the value of IC′50 was from 50 nM to 200 nM.)
20,CCOc1ccccc1CNC[C@H]1CC[C@@H](Nc2nccc(N(C)C)n2)CC1 [compound 1244],2 (Class 2: The value of percent of control at 10^−7 M was from 40% to 60% or the value of IC′50 was from 50 nM to 200 nM.)
21,CN(C)c1ccnc(N[C@H]2CC[C@@H](CNCc3c[nH]c4ccccc34)CC2)n1 [compound 1245],3 (Class 3 The value of percent of control at 10^−7 M was more than 60% or the value of IC50 was more than 200 nM.)
22,COc1ccc(OC)c(CNC[C@H]2CC[C@@H](Nc3nccc(N(C)C)n3)CC2)c1 [compound 1246],3 (Class 3 The value of percent of control at 10^−7 M was more than 60% or the value of IC50 was more than 200 nM.)

row,SMILES,class
1,COc1ccc(CNC[C@H]2CC[C@@H](Nc3nccc(N(C)C)n3)CC2)c2ccccc12 [compound 1247],1 (Class 1: The value of percent of control at 10^−7 M was less than 40% or the value of IC50 was less than 50 nM.)
2,COc1ccc2[nH]cc(CNC[C@H]3CC[C@@H](Nc4nccc(N(C)C)n4)CC3)c2c1 [compound 1248],2 (Class 2: The value of percent of control at 10^−7 M was from 40% to 60% or the value of IC′50 was from 50 nM to 200 nM.)
3,COc1ccc2ccccc2c1CNC[C@H]1CC[C@@H](Nc2nccc(N(C)C)n2)CC1 [compound 1249],1 (Class 1: The value of percent of control at 10^−7 M was less than 40% or the value of IC50 was less than 50 nM.)
4,COc1cc(Br)cc(CNC[C@H]2CC[C@@H](Nc3nccc(N(C)C)n3)CC2)c1O [compound 1250],1 (Class 1: The value of percent of control at 10^−7 M was less than 40% or the value of IC50 was less than 50 nM.)
5,CN(C)c1ccnc(N[C@H]2CC[C@@H](CNCc3c[nH]c4ccc(Br)cc34)CC2)n1 [compound 1251],1 (Class 1: The value of percent of control at 10^−7 M was less than 40% or the value of IC50 was less than 50 nM.)
6,COc1ccc(CNC[C@H]2CC[C@@H](Nc3nccc(N(C)C)n3)CC2)c(OC)c1 [compound 1252],2 (Class 2: The value of percent of control at 10^−7 M was from 40% to 60% or the value of IC′50 was from 50 nM to 200 nM.)
7,COc1ccc(CNC[C@H]2CC[C@@H](Nc3nccc(N(C)C)n3)CC2)c(OC)c1OC [compound 1253],1 (Class 1: The value of percent of control at 10^−7 M was less than 40% or the value of IC50 was less than 50 nM.)
8,CCOc1cc(CNC[C@H]2CC[C@@H](Nc3nccc(N(C)C)n3)CC2)ccc1OC [compound 1255],1 (Class 1: The value of percent of control at 10^−7 M was less than 40% or the value of IC50 was less than 50 nM.)
9,CN(C)c1ccnc(N[C@H]2CC[C@@H](CNCc3c[nH]nc3-c3ccc(C(F)(F)F)cc3)CC2)n1 [compound 1256],1 (Class 1: The value of percent of control at 10^−7 M was less than 40% or the value of IC50 was less than 50 nM.)
10,COc1cc(CNC[C@H]2CC[C@@H](Nc3nccc(N(C)C)n3)CC2)cc(OC)c1OC [compound 1257],2 (Class 2: The value of percent of control at 10^−7 M was from 40% to 60% or the value of IC′50 was from 50 nM to 200 nM.)
11,COc1cc(CNC[C@H]2CC[C@@H](Nc3nccc(N(C)C)n3)CC2)cc(OC)c1 [compound 1259],3 (Class 3 The value of percent of control at 10^−7 M was more than 60% or the value of IC50 was more than 200 nM.)
12,COc1cc(CNC[C@H]2CC[C@@H](Nc3nccc(N(C)C)n3)CC2)cc(I)c1O [compound 1260],1 (Class 1: The value of percent of control at 10^−7 M was less than 40% or the value of IC50 was less than 50 nM.)
13,Cc1cc(CNC[C@H]2CC[C@@H](Nc3nccc(N(C)C)n3)CC2)cc(C)c1O [compound 1261],1 (Class 1: The value of percent of control at 10^−7 M was less than 40% or the value of IC50 was less than 50 nM.)
14,COc1ccc(CNC[C@H]2CC[C@@H](Nc3nccc(N(C)C)n3)CC2)cc1 [compound 1262],3 (Class 3 The value of percent of control at 10^−7 M was more than 60% or the value of IC50 was more than 200 nM.)
15,CN(C)c1ccnc(N[C@H]2CC[C@@H](CNCc3ccc4c(c3)OCCO4)CC2)n1 [compound 1263],3 (Class 3 The value of percent of control at 10^−7 M was more than 60% or the value of IC50 was more than 200 nM.)
16,CN(C)c1ccnc(N[C@H]2CC[C@@H](CNCc3cccc(Br)c3)CC2)n1 [compound 1264],3 (Class 3 The value of percent of control at 10^−7 M was more than 60% or the value of IC50 was more than 200 nM.)
17,COc1cc(OC)c(CNC[C@H]2CC[C@@H](Nc3nccc(N(C)C)n3)CC2)cc1Br [compound 1265],1 (Class 1: The value of percent of control at 10^−7 M was less than 40% or the value of IC50 was less than 50 nM.)
18,COc1ccc(Br)cc1CNC[C@H]1CC[C@@H](Nc2nccc(N(C)C)n2)CC1 [compound 1266],1 (Class 1: The value of percent of control at 10^−7 M was less than 40% or the value of IC50 was less than 50 nM.)
19,CN(C)c1ccnc(N[C@H]2CC[C@@H](CNCc3ccc(O)cc3Cl)CC2)n1 [compound 1267],3 (Class 3 The value of percent of control at 10^−7 M was more than 60% or the value of IC50 was more than 200 nM.)
20,CN(C)c1ccnc(N[C@H]2CC[C@@H](CNCc3ccccc3C#N)CC2)n1 [compound 1268],3 (Class 3 The value of percent of control at 10^−7 M was more than 60% or the value of IC50 was more than 200 nM.)
21,CN(C)c1ccnc(N[C@H]2CC[C@@H](CNCc3cccc(Cl)c3)CC2)n1 [compound 1269],3 (Class 3 The value of percent of control at 10^−7 M was more than 60% or the value of IC50 was more than 200 nM.)
22,CN(C)c1ccnc(N[C@H]2CC[C@@H](CNCc3ccc(Cl)cc3)CC2)n1 [compound 1270],3 (Class 3 The value of percent of control at 10^−7 M was more than 60% or the value of IC50 was more than 200 nM.)
